Data published in patent US4394503A, “Cephalosporin derivatives” (priority 1981, dated 1983).
In brackets after ≈: the same amount, converted by molar mass. Where a name gives a salt, the structure may show the parent alone. Read-outs that look alike come from different tables or passages of the source.

Experiments:
B. fragilis Group I = assay: In vitro antianaerobic activity in GAM agar (Table 4); assay type: cell-based; settings: Bacteroides fragilis
[1] = system: Cephalothin-resistant E. coli and Kl. pneumoniae (Gn-Ib); assay: In vitro antibacterial activity, two-fold agar dilution, Mueller-Hinton agar (Table 1), group Gn-Ib; assay type: cell-based, E. coli (3) and Kl. pneumoniae (3); settings: Escherichia coli, read-out: Geometric Mean of MIC
[2] = system: Penicillin-resistant S. aureus (Gp-Ib); assay: In vitro antibacterial activity, two-fold agar dilution, Mueller-Hinton agar (Table 1), group Gp-Ib; assay type: cell-based; settings: Staphylococcus aureus; read-out: Geometric Mean of MIC
[3] = system: Penicillin-sensitive S. aureus (Gp-Ia); assay: In vitro antibacterial activity, two-fold agar dilution, Mueller-Hinton agar (Table 1), group Gp-Ia; assay type: cell-based; settings: Staphylococcus aureus; read-out: Geometric Mean of MIC
B. fragilis Group II = assay: In vitro antianaerobic activity in GAM agar (Table 4); assay type: cell-based; settings: Bacteroides fragilis; read-out: Geometric Mean of MIC
Ps. aeruginosa (Gn-III) = assay: In vitro antibacterial activity, two-fold agar dilution, Mueller-Hinton agar (Table 1), group Gn-III; assay type: cell-based; settings: Pseudomonas aeruginosa; read-out: Geometric Mean of MIC
[4] = system: Pr. morganii, Ent. cloacae and Ser. marcescens (Gn-II); assay: In vitro antibacterial activity, two-fold agar dilution, Mueller-Hinton agar (Table 1), group Gn-II; assay type: cell-based, Pr. morganii (1), Ent. cloacae (2) and Ser. marcescens (2); settings: read-out: Geometric Mean of MIC
[5] = system: Others Group IV (C. difficile, C. perfringens, P. acne and P. anaerobius); assay: microbe, parasite or virus in culture; assay type: cell-based; settings: read-out: Geometric Mean of MIC, GAM agar, 1 strain each
B. fragilis Group III = assay: In vitro antianaerobic activity in GAM agar (Table 4); assay type: cell-based; settings: read-out: Geometric Mean of MIC
[6] = system: Cephalothin-sensitive E. coli, Kl. pneumoniae and Pr. mirabilis (Gn-Ia); assay: In vitro antibacterial activity, two-fold agar dilution, Mueller-Hinton agar (Table 1), group Gn-Ia; assay type: cell-based; settings: read-out: Geometric Mean of MIC
S. aureus BX-1633 = assay: MIC against selected test organisms (Table 2); assay type: cell-based; settings: Staphylococcus aureus, BX1633; Gp-Ib, PC-R; read-out: Minimum Inhibitory Concentration
K. pneumoniae A 9867 = assay: MIC against selected test organisms (Table 2); assay type: cell-based; settings: Klebsiella pneumoniae, A9867; Gn-Ib, CET-R; read-out: Minimum Inhibitory Concentration
P. aeruginosa A15150 = assay: MIC against selected test organisms (Table 2); assay type: cell-based; settings: Pseudomonas aeruginosa, A15150; Gn-III, CET-R; read-out: Minimum Inhibitory Concentration
S. aureus A9497 = assay: MIC against selected test organisms (Table 2); assay type: cell-based; settings: Staphylococcus aureus, Gp-Ia, PC-S, read-out: Minimum Inhibitory Concentration
E. cloacae A9656 = assay: MIC against selected test organisms (Table 2); assay type: cell-based; settings: Enterobacter cloacae, Gn-II, CET-R, read-out: Minimum Inhibitory Concentration
P. morganii A9553 = assay: MIC against selected test organisms (Table 2); assay type: cell-based; settings: Morganella morganii, A9553; Gn-II, CET-R; read-out: Minimum Inhibitory Concentration
B. fragilis A20928-1 = assay: MIC against selected test organisms (Table 2); assay type: cell-based; settings: Bacteroides fragilis, A209281; Anaerobe, CET-S; read-out: Minimum Inhibitory Concentration
P. aeruginosa A20717 = assay: MIC against selected test organisms (Table 2); assay type: cell-based; settings: Pseudomonas aeruginosa, A20717; Gn-III, CET-R; read-out: Minimum Inhibitory Concentration
S. aureus Smith [7] = assay: Therapeutic efficacy in experimentally infected mice (Table 5); assay type: in vivo; settings: Staphylococcus aureus, im, 120 h; i.m., immediately after intraperitoneal challenge, 5 days observation; read-out: PD50 (median protective dose)
Protocol: (§1) The test compounds were administered intramuscularly immediately after the bacterial challenge.

E. coli Juhl [8] = assay: as above; assay type: in vivo; settings: Escherichia coli, im, 120 h; i.m., immediately after intraperitoneal challenge, 5 days observation; read-out: PD50 (median protective dose)
Protocol: as §1

P. aeruginosa A9843 [9] = assay: as above; assay type: in vivo; settings: Pseudomonas aeruginosa, A9843, im, 120 h; i.m., immediately after intraperitoneal challenge, 5 days observation; read-out: PD50 (median protective dose)
Protocol: as §1

P. aeruginosa A9843 [10] = assay: MIC against selected test organisms (Table 2); assay type: cell-based; settings: Pseudomonas aeruginosa, A9843; Gn-III, CET-R; read-out: Minimum Inhibitory Concentration
C. difficile A21675 = assay: MIC against selected test organisms (Table 2); assay type: cell-based; settings: Clostridioides difficile, A21675; Anaerobe, CLDM-R; read-out: Minimum Inhibitory Concentration
B. fragilis A21900 = assay: MIC against selected test organisms (Table 2); assay type: cell-based; settings: Bacteroides fragilis, A21900; Anaerobe, CET-S; read-out: Minimum Inhibitory Concentration
B. fragilis A22693 = assay: MIC against selected test organisms (Table 2); assay type: cell-based; settings: Bacteroides fragilis, A22693; Anaerobe, CET-R; read-out: Minimum Inhibitory Concentration
S. marcescens A20019 = assay: MIC against selected test organisms (Table 2); assay type: cell-based; settings: Serratia marcescens, A20019; Gn-II, CET-R; read-out: Minimum Inhibitory Concentration
K. pneumoniae D11 = assay: MIC against selected test organisms (Table 2); assay type: cell-based; settings: Klebsiella pneumoniae, D11; Gn-Ia, CET-S; read-out: Minimum Inhibitory Concentration
S. aureus A15092 = assay: MIC against selected test organisms (Table 2); assay type: cell-based; settings: Staphylococcus aureus, Gp-Ib, PC-R, read-out: Minimum Inhibitory Concentration
P. mirabilis A9554 = assay: MIC against selected test organisms (Table 2); assay type: cell-based; settings: Proteus mirabilis, A9554; Gn-Ia, CET-S; read-out: Minimum Inhibitory Concentration
E. coli A15148 = assay: MIC against selected test organisms (Table 2); assay type: cell-based; settings: Escherichia coli, A15148; Gn-Ib, CET-R; read-out: Minimum Inhibitory Concentration
B. fragilis A22695 = assay: MIC against selected test organisms (Table 2); assay type: cell-based; settings: Bacteroides fragilis, A22695; Anaerobe, AMP-R; read-out: Minimum Inhibitory Concentration
E. coli Juhl [11] = assay: MIC against selected test organisms (Table 2); assay type: cell-based; settings: Escherichia coli; Gn-Ia, CET-S; read-out: Minimum Inhibitory Concentration
C. perfringens A9635 = assay: microbe, parasite or virus in culture; assay type: cell-based; settings: Clostridium perfringens, A9635, read-out: Minimum Inhibitory Concentration
S. aureus Smith [12] = assay: MIC against selected test organisms (Table 2); assay type: cell-based; settings: Staphylococcus aureus; Gp-Ia, PC-S; read-out: Minimum Inhibitory Concentration
B. fragilis A22533 = assay: MIC against selected test organisms (Table 2); assay type: cell-based; settings: Bacteroides fragilis, A22533; Anaerobe, AMP-R; read-out: Minimum Inhibitory Concentration
B. fragilis A22021 = assay: MIC against selected test organisms (Table 2); assay type: cell-based; settings: Bacteroides fragilis, A22021; Anaerobe, CET-R; read-out: Minimum Inhibitory Concentration
P. acnes A21933 = assay: MIC against selected test organisms (Table 2); assay type: cell-based; settings: Cutibacterium acnes, A21933; Anaerobe, CLDM-R; read-out: Minimum Inhibitory Concentration
[13] = prior-art filing; cited from earlier work

## CC(C)Sc1cc[n+](CC2=C(C(=O)[O-])N3C(=O)C(NC(=O)/C(=N\OC(C)(C)C(=O)O)c4csc(N)n4)C3SC2)cc1 (stereo not drawn) [Example 5, 7-[(Z)-2-(2-Aminothiazol-4-yl)-2-(2-carboxyprop-2-oxyimino)-acetamido]-3-[(4-isopropylthiopyridinium)methyl]-3-cephem-4-carboxylate]
B. fragilis Group I; read-out: Geometric Mean of MIC
  MIC: 3.2 µg/mL (≈ 5.16 µM)
[1]
  MIC: 1 µg/mL (≈ 1.61 µM)
[2]
  MIC: 12.5 µg/mL (≈ 20.1 µM)
[3]
  MIC: 4.7 µg/mL (≈ 7.57 µM)
B. fragilis Group II
  MIC: 25 µg/mL (≈ 40.3 µM)
Ps. aeruginosa (Gn-III)
  MIC: 12.5 µg/mL (≈ 20.1 µM)
[4]
  MIC: 2.4 µg/mL (≈ 3.87 µM)
[5]; Example 5 ceftazidime (mean of 2 experiments)
  MIC: 3.5 µg/mL (≈ 5.64 µM)
B. fragilis Group III
  MIC: > 100 µg/mL
[6]
  MIC: 0.11 µg/mL (≈ 0.177 µM)

## CSc1cccc[n+]1CC1=C(C(=O)[O-])N2C(=O)C(NC(=O)/C(=N\OC(C)(C)C(=O)O)c3csc(N)n3)C2SC1 (stereo not drawn) [Example 3, 7-[(Z)-2-(2-Aminothiazol-4-yl)-2-(2-carboxyprop-2-oxyimino)-acetamido]-3-[(2-methylthiopyridinium)methyl]-3-cephem-4-carboxylate]
[1]
  MIC: 2 µg/mL (≈ 3.37 µM)
[2]
  MIC: 12.5 µg/mL (≈ 21.1 µM)
[3]
  MIC: 9.5 µg/mL (≈ 16 µM)
Ps. aeruginosa (Gn-III)
  MIC: 5.6 µg/mL (≈ 9.45 µM)
[4]
  MIC: 3.2 µg/mL (≈ 5.4 µM)
[6]
  MIC: 0.11 µg/mL (≈ 0.186 µM)

## CSc1ccc[n+](CC2=C(C(=O)[O-])N3C(=O)C(NC(=O)/C(=N\OC(C)(C)C(=O)O)c4csc(N)n4)C3SC2)c1 (stereo not drawn) [Example 1, 7-[(Z)-2-(2-Aminothiazol-4-yl)-2-(2-carboxyprop-2-oxyimino)acetamido]-3-[(3-methylthiopyridinium)methyl]-3-cephem-4-carboxylate]
S. aureus BX-1633
  MIC: 12.5 µg/mL (≈ 21.1 µM)
K. pneumoniae A 9867
  MIC: 3.1 µg/mL (≈ 5.23 µM)
P. aeruginosa A15150
  MIC: 1.6 µg/mL (≈ 2.7 µM)
S. aureus A9497
  MIC: 3.1 µg/mL (≈ 5.23 µM)
E. cloacae A9656
  MIC: 0.4 µg/mL (≈ 0.675 µM)
[1]
  MIC: 1.1 µg/mL (≈ 1.86 µM)
P. morganii A9553
  MIC: 1.6 µg/mL (≈ 2.7 µM)
[2]
  MIC: 12.5 µg/mL (≈ 21.1 µM)
B. fragilis A20928-1
  MIC: 6.3 µg/mL (≈ 10.6 µM)
P. aeruginosa A20717
  MIC: 12.5 µg/mL (≈ 21.1 µM)
S. aureus Smith [7]
  ED50: 6 mg/kg
E. coli Juhl [8]
  ED50: 0.46 mg/kg
P. aeruginosa A9843 [9]
  ED50: 12 mg/kg
P. aeruginosa A9843 [10]
  MIC: 3.1 µg/mL (≈ 5.23 µM)
[3]
  MIC: 4.7 µg/mL (≈ 7.93 µM)
C. difficile A21675
  MIC: > 100 µg/mL
B. fragilis A21900
  MIC: 6.3 µg/mL (≈ 10.6 µM)
B. fragilis A22693
  MIC: 25 µg/mL (≈ 42.2 µM)
S. marcescens A20019
  MIC: 0.2 µg/mL (≈ 0.337 µM)
Ps. aeruginosa (Gn-III)
  MIC: 3.5 µg/mL (≈ 5.91 µM)
K. pneumoniae D11
  MIC: 0.4 µg/mL (≈ 0.675 µM)
[4]
  MIC: 2.8 µg/mL (≈ 4.72 µM)
S. aureus A15092
  MIC: 12.5 µg/mL (≈ 21.1 µM)
P. mirabilis A9554
  MIC: 0.1 µg/mL (≈ 0.169 µM)
E. coli A15148
  MIC: 0.4 µg/mL (≈ 0.675 µM)
B. fragilis A22695
  MIC: 50 µg/mL (≈ 84.4 µM)
E. coli Juhl [11]
  MIC: 0.2 µg/mL (≈ 0.337 µM)
C. perfringens A9635
  MIC: 25 µg/mL (≈ 42.2 µM)
S. aureus Smith [12]
  MIC: 6.3 µg/mL (≈ 10.6 µM)
[6]
  MIC: 0.11 µg/mL (≈ 0.186 µM)
B. fragilis A22533
  MIC: > 100 µg/mL
B. fragilis A22021
  MIC: 25 µg/mL (≈ 42.2 µM)
P. acnes A21933
  MIC: 1.6 µg/mL (≈ 2.7 µM)

## CCSc1cc[n+](CC2=C(C(=O)[O-])N3C(=O)C(NC(=O)/C(=N\OC(C)(C)C(=O)O)c4csc(N)n4)C3SC2)cc1 (stereo not drawn) [Example 4, 7-[(Z)-2-(2-Aminothiazol-4-yl)-2-(2-carboxyprop-2-oxyimino)acetamido]-3-[(4-ethylthiopyridinium)methyl]-3-cephem-4-carboxylate]
B. fragilis Group I; read-out: Geometric Mean of MIC, GAM agar, Example 4, ceftazidime (mean of 3 experiments), nonlactamase-producing, ampicillin-sensitive, 3 strains
  MIC: 2.5 µg/mL (≈ 4.12 µM)
[1]
  MIC: 1.3 µg/mL (≈ 2.14 µM)
[2]
  MIC: 12.5 µg/mL (≈ 20.6 µM)
[3]
  MIC: 6.3 µg/mL (≈ 10.4 µM)
B. fragilis Group II
  MIC: 12.5 µg/mL (≈ 20.6 µM)
Ps. aeruginosa (Gn-III)
  MIC: 8.8 µg/mL (≈ 14.5 µM)
[4]
  MIC: 2.1 µg/mL (≈ 3.46 µM)
[5]; Example 4, ceftazidime (mean of 3 experiments)
  MIC: 8.9 µg/mL (≈ 14.7 µM)
B. fragilis Group III
  MIC: 100 µg/mL (≈ 165 µM)
[6]
  MIC: 0.087 µg/mL (≈ 0.143 µM)

## CC(C)(O/N=C(\C(=O)N[C@@H]1C(=O)N2C(C(=O)[O-])=C(C[n+]3ccccc3)CS[C@H]12)c1csc(N)n1)C(=O)O [bishydrochloride of ceftazidime]
[13]
  storage stability: good storage stability
